Reference: US7699995B2, “Water treatment method” (priority 2006, dated 2010)
In brackets after ≈: the same amount, converted by molar mass. Where two headings read alike, the source gives them in different places.

What was measured:
[1] = system: Mycobacterium immunogenum (ATCC 700505); test: High resolution MIC test, pure culture, 1/10x TSB; format: cell-based; settings: M. immunogenum, 24 hours at 30° C.
Description: (§1) The lowest concentration of microbicide required to inhibit bacteria was determined by a high resolution MIC test. Varying amounts of each microbicide were added to media in a 96-well microtiter plate. The media used for the MIC tests was 10% Trypicase Soy Broth ( 1/10× TSB). […] serial dilutions were performed on a Biomek 2000 Workstation to obtain a range of closely spaced concentrations of microbicides. A cell suspension of stationary phase microorganisms, adjusted to provide 10^6 colony forming units (CFU)/mL in each well for bacteria was added to the microtiter plate. The microtiter plates were incubated for 24 hours at 30° C. for Mycobacterium immunogenum and 37° C. for Mycobacterium chelonae. The presence or absence of microbial growth was determined by measuring the turbidity in each well using a Thermomax microplate reader set at an absorbance of 650 nm. The lowest concentration of compound in which no growth was observed was considered the MIC value for the microbicide. The MIC value for each microbicide was determined from the average of four determinations for bacteria.
(§2) Bacterial strains tested included Mycobacterium chelonae (ATCC 14472) and Mycobacterium immunogenum (ATCC 700505). Mycobacterial cultures were grown overnight at 30° C. (M. immunogenum) or 37° C. (M. chelonae), in a rotary shaking bath in Middlebrook […] with Middlebrook enrichment. A 1:20 dilution of the overnight culture was made into the appropriate test media and inoculated to give a final concentration of 10^6 to 10^7 CFU/ml.

[2] = system: Mycobacterium chelonae (ATCC 14472); test: High resolution MIC test, pure culture, 1/10x TSB; format: cell-based; settings: M. chelonae, 24 hours at 37° C.
Description: as §1, §2

Alcaligenes faecalis #93 = test: MIC at pH 7.1 or pH 9.0, half strength TSB; format: cell-based; settings: Alcaligenes faecalis, 72 h, three days, read-out: Minimum Inhibitory Concentration
Description: (§3) Minimum inhibitory concentration (MIC) studies were conducted to determine the lowest level of biocide required to inhibit growth of bacteria and fungi. Tests were conducted in 96-well microtiter plates. Biocides were added to growth media in the plates and serially diluted to obtain a range of concentrations. Tests were conducted in one-half strength trypticase soy broth (TSB; adjusted to pH 7.1 or pH 9.0). Bacteria and fungi were added to samples at 10^6 colony forming units per ml and incubated at 30° C. for three days. MIC values were determined visually on a growth no-growth basis.

Streptomyces sp. #130 = test: MIC at pH 7.1 or pH 9.0, half strength TSB; format: cell-based; settings: Streptomyces, 72 h, three days, read-out: Minimum Inhibitory Concentration
Description: as §3

Aspergillus niger #128 = test: MIC at pH 7.1 or pH 9.0, half strength TSB; format: cell-based; settings: Aspergillus niger, 72 h, three days, read-out: Minimum Inhibitory Concentration
Description: as §3

[3] = system: Pseudomonas aeruginosa #13; test: MIC at pH 7.1 or pH 9.0, half strength TSB; format: cell-based; settings: Pseudomonas aeruginosa, 72 h, three days, read-out: Minimum Inhibitory Concentration
Description: as §3

Aspergillus sp. #120 = test: MIC at pH 7.1 or pH 9.0, half strength TSB; format: cell-based; settings: Aspergillus, 72 h, three days, read-out: Minimum Inhibitory Concentration
Description: as §3

[4] = system: Alcaligenes xylosoxydans #95; test: MIC at pH 7.1 or pH 9.0, half strength TSB; format: cell-based; settings: Achromobacter xylosoxidans, 72 h, three days, read-out: Minimum Inhibitory Concentration
Description: as §3

Pseudomonas diminuta #99 = test: MIC at pH 7.1 or pH 9.0, half strength TSB; format: cell-based; settings: Brevundimonas diminuta, 72 h, three days, read-out: Minimum Inhibitory Concentration
Description: as §3

Rhodotorula rubra #156 = test: MIC at pH 7.1 or pH 9.0, half strength TSB; format: cell-based; settings: Rhodotorula, 72 h, three days, read-out: Minimum Inhibitory Concentration
Description: as §3

[5] = system: Pseudomonas pseudoalcaligenes #15; test: MIC at pH 7.1 or pH 9.0, half strength TSB; format: cell-based; settings: Ectopseudomonas oleovorans, 72 h, three days, read-out: Minimum Inhibitory Concentration
Description: as §3

[6] = Stability in buffered water at various pH and temperatures (HPLC); format: physicochemical
Description: Biocides were added to buffer solutions and stability was tested at 22° and 50° C. using HPLC to measure biocide concentration at 0 time, 21 days, 43 days, and 88-90 days. Biocide stability was determined in the following buffer solutions: pH2, 0.01M HCl; pH6, 0.1M KH2PO4; pH8, 0.025M borate; pH10, 0.025M borate; pH12, 0.05M Na2HPO4. Biocide concentrations tested were 100 ppm MI, 200 ppm BIT, 44 ppm CMI.

Cn1sccc1=O [MI, 2-methyl-4-isothiazolin-3-one]
Minimum Inhibitory Concentration [1]: 50 ppm active | Minimum Inhibitory Concentration [2]: 15 ppm active | MIC (Alcaligenes faecalis #93; pH 7.1, 30° C.): 3.2 µg/mL (≈ 27.8 µM) | MIC (Alcaligenes faecalis #93; pH 9.0, 30° C.): 6.3 µg/mL (≈ 54.7 µM) | MIC (Streptomyces sp. #130; pH 7.1, 30° C.): 3.2 µg/mL (≈ 27.8 µM) | MIC (Streptomyces sp. #130; pH 9.0, 30° C.): 3.2 µg/mL (≈ 27.8 µM) | MIC (Aspergillus niger #128; pH 7.1, 30° C.): 100 µg/mL (≈ 868 µM) | MIC (Aspergillus niger #128; pH 9.0, 30° C.): 100 µg/mL (≈ 868 µM) | MIC ([3]; pH 7.1, 30° C.): 12.5 µg/mL (≈ 109 µM) | MIC ([3]; pH 9.0, 30° C.): 6.3 µg/mL (≈ 54.7 µM) | MIC (Aspergillus sp. #120; pH 7.1, 30° C.): 50 µg/mL (≈ 434 µM) | MIC (Aspergillus sp. #120; pH 9.0, 30° C.): 50 µg/mL (≈ 434 µM) | MIC ([4]; pH 7.1, 30° C.): 12.5 µg/mL (≈ 109 µM) | MIC ([4]; pH 9.0, 30° C.): 25 µg/mL (≈ 217 µM) | MIC (Pseudomonas diminuta #99; pH 7.1, 30° C.): 12.5 µg/mL (≈ 109 µM) | MIC (Pseudomonas diminuta #99; pH 9.0, 30° C.): 6.3 µg/mL (≈ 54.7 µM) | MIC (Rhodotorula rubra #156; pH 7.1, 30° C.): 25 µg/mL (≈ 217 µM) | MIC (Rhodotorula rubra #156; pH 9.0, 30° C.): 25 µg/mL (≈ 217 µM) | MIC ([5]; pH 7.1, 30° C.): 25 µg/mL (≈ 217 µM) | MIC ([5]; pH 9.0, 30° C.): 25 µg/mL (≈ 217 µM) | Percent Remaining at: pH 2 ([6]; 22° C., day 0): 100% | Percent Remaining at: pH 6 ([6]; 22° C., day 0): 100% | Percent Remaining at: pH 8 ([6]; 22° C., day 0): 100% | Percent Remaining at: pH 10 ([6]; 22° C., day 0): 100% | Percent Remaining at: pH 12 ([6]; 22° C., day 0): 100% | Percent Remaining at: pH 2 ([6]; 22° C., day 21): 104% | Percent Remaining at: pH 6 ([6]; 22° C., day 21): 100% | Percent Remaining at: pH 8 ([6]; 22° C., day 21): 100% | Percent Remaining at: pH 10 ([6]; 22° C., day 21): 100% | Percent Remaining at: pH 12 ([6]; 22° C., day 21): 98% | Percent Remaining at: pH 2 ([6]; 22° C., day 43): 98% | Percent Remaining at: pH 6 ([6]; 22° C., day 43): 94% | Percent Remaining at: pH 8 ([6]; 22° C., day 43): 95% | Percent Remaining at: pH 10 ([6]; 22° C., day 43): 89% | Percent Remaining at: pH 12 ([6]; 22° C., day 43): 93% | Percent Remaining at: pH 2 ([6]; 22° C., day 88): 100% | Percent Remaining at: pH 6 ([6]; 22° C., day 88): 100% | Percent Remaining at: pH 8 ([6]; 22° C., day 88): 100% | Percent Remaining at: pH 10 ([6]; 22° C., day 88): 100% | Percent Remaining at: pH 12 ([6]; 22° C., day 88): 100% | Percent Remaining at: pH 2 ([6]; 50° C., day 0): 100% | Percent Remaining at: pH 6 ([6]; 50° C., day 0): 100% | Percent Remaining at: pH 8 ([6]; 50° C., day 0): 100% | Percent Remaining at: pH 10 ([6]; 50° C., day 0): 100% | Percent Remaining at: pH 12 ([6]; 50° C., day 0): 100% | Percent Remaining at: pH 2 ([6]; 50° C., day 21): 100% | Percent Remaining at: pH 6 ([6]; 50° C., day 21): 98% | Percent Remaining at: pH 8 ([6]; 50° C., day 21): 100% | Percent Remaining at: pH 10 ([6]; 50° C., day 21): 98% | Percent Remaining at: pH 12 ([6]; 50° C., day 21): 90% | Percent Remaining at: pH 2 ([6]; 50° C., day 43): 97% | Percent Remaining at: pH 6 ([6]; 50° C., day 43): 93% | Percent Remaining at: pH 8 ([6]; 50° C., day 43): 95% | Percent Remaining at: pH 10 ([6]; 50° C., day 43): 93% | Percent Remaining at: pH 12 ([6]; 50° C., day 43): 78% | Percent Remaining at: pH 2 ([6]; 50° C., day 90): 100% | Percent Remaining at: pH 6 ([6]; 50° C., day 90): 100% | Percent Remaining at: pH 8 ([6]; 50° C., day 90): 100% | Percent Remaining at: pH 10 ([6]; 50° C., day 90): 100% | Percent Remaining at: pH 12 ([6]; 50° C., day 90): 76%
